We go through three compounds from PMC4457528, “Identification of Novel Small Molecule Inhibitors of Oncogenic RET Kinase” (PLoS ONE, 2015).

Read-outs that look alike come from different tables or passages of the source. Where only a bound is given, the exact number is not on record here.

Common to all, as to assay: KinomeScan kinase panel, single concentration 10 µM
What all share (format): binding

Assay [1] has as its target T1, KinomeScan kinase panel (Homo sapiens, UniProt P00533, L858R).
T1 construct: purchased DiscoveRx (KinomeScan)
The following applies: EGFR(L858R), 10 µM.

For assay [2], the target named is T2, KinomeScan kinase panel (Homo sapiens, UniProt P11362).
T2 construct: purchased DiscoveRx (KinomeScan)
T2 sequence (P11362 22-822): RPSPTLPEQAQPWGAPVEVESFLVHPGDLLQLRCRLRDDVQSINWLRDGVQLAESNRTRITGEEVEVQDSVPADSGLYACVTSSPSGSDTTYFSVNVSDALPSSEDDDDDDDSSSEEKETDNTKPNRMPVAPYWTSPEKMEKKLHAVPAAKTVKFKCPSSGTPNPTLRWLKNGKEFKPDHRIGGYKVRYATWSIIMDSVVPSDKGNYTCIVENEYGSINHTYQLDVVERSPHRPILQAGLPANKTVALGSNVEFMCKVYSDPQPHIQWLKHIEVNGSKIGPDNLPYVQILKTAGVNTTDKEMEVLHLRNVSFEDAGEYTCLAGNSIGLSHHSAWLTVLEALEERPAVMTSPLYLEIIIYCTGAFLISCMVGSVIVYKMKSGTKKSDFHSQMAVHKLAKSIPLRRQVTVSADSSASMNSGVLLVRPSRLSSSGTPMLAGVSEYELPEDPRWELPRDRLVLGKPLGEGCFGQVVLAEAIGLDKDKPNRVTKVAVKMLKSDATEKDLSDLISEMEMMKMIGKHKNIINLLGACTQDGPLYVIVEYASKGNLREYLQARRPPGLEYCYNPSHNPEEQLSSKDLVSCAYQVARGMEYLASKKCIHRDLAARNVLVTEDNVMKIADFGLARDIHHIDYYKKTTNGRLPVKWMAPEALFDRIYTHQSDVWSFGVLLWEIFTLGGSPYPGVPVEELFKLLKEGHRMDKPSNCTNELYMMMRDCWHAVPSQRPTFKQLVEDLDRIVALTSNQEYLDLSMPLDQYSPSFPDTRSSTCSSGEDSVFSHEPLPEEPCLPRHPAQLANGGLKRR
The following applies: FGFR1, 10 µM; read-out: score (%).

Assay [3] concerns the target T3, KinomeScan kinase panel (Homo sapiens, UniProt P78362).
T3 construct: purchased DiscoveRx (KinomeScan)
As to conditions: read-out: score (%).

For assay [4], the target named is T4, KinomeScan kinase panel (Homo sapiens, UniProt P80192).
T4 construct: purchased DiscoveRx (KinomeScan)
T4 sequence (P80192 whole entry): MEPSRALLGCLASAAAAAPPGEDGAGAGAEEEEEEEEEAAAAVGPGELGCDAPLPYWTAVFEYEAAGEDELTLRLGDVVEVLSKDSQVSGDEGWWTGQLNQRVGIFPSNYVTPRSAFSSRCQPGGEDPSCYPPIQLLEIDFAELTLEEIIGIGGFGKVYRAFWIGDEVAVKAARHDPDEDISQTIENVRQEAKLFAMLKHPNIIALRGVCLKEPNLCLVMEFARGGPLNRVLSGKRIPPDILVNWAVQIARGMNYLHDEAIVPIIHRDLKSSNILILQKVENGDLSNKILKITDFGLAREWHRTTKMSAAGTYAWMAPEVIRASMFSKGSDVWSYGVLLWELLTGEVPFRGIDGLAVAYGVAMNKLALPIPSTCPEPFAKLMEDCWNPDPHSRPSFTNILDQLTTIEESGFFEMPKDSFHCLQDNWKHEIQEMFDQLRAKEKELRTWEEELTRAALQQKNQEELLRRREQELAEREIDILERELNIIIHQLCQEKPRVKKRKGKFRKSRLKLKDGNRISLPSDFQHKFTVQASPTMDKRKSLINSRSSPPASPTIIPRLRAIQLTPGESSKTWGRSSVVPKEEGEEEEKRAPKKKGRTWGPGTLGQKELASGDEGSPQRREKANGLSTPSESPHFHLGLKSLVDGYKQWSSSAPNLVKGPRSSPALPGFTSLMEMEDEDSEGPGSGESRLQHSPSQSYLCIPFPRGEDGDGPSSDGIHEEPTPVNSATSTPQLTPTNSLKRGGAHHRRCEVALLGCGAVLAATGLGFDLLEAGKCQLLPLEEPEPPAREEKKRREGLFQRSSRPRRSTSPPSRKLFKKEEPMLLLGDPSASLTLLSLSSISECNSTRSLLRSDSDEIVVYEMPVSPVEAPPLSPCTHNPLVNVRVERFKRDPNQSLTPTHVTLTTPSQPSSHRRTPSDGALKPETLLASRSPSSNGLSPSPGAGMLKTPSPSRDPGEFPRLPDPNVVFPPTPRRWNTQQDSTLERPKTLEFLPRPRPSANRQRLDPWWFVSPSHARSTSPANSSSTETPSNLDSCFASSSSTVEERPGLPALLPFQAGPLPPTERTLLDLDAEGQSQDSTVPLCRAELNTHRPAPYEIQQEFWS
The following applies: MLK1, 10 µM; read-out: score (%).

The target of assay [5] is T5, KinomeScan kinase panel (Homo sapiens, UniProt Q02156).
T5 construct: purchased DiscoveRx (KinomeScan)
T5 sequence (Q02156 1-737): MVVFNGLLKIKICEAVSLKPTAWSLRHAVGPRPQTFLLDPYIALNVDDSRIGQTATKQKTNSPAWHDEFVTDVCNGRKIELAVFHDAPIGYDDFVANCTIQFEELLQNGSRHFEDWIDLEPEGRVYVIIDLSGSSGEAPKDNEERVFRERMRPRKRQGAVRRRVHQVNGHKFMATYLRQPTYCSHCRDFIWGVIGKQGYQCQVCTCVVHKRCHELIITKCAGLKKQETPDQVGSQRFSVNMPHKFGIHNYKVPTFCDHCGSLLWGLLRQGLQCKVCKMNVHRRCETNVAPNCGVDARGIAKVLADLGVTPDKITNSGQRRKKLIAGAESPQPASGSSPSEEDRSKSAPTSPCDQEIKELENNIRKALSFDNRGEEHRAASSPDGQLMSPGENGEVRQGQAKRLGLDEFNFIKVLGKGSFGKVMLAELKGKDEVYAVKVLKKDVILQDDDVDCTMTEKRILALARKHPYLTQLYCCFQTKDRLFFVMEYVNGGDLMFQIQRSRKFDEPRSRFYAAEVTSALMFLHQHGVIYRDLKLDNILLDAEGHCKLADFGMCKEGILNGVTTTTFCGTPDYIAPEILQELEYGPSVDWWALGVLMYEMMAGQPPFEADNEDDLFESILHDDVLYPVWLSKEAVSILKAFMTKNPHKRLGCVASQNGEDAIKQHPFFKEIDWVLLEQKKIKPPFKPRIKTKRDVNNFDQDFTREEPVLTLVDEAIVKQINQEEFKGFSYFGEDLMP
The following applies: 10 µM, read-out: score (%).

In assay [6] the target is T6, KinomeScan kinase panel (Homo sapiens, UniProt Q08881).
T6 construct: purchased DiscoveRx (KinomeScan)
T6 sequence (Q08881 1-620): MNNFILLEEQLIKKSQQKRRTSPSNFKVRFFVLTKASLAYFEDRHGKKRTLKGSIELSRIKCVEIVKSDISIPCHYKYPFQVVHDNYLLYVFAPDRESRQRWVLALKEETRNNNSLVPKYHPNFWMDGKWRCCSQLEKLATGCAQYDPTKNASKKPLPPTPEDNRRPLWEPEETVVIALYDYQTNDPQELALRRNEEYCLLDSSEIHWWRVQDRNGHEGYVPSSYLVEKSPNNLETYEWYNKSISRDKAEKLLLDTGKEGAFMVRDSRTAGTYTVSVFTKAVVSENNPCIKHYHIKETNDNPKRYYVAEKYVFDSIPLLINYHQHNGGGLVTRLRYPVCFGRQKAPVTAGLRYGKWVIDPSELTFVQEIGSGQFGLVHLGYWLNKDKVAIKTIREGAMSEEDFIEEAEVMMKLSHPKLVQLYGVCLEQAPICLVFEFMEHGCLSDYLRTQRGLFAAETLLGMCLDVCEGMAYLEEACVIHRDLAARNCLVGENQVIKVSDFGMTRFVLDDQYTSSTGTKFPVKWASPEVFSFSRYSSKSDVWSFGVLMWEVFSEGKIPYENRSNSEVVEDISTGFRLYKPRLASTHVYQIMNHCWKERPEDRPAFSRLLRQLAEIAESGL
The following applies: ITK, 10 µM.

Assay [7] has as its target T7, KinomeScan kinase panel (Homo sapiens, UniProt Q13131).
T7 construct: purchased DiscoveRx (KinomeScan)
As to conditions: AMPK-alpha1, 10 µM; read-out: score (%).

For assay [8], the target named is T8, KinomeScan kinase panel (Homo sapiens, UniProt Q13555).
T8 construct: purchased DiscoveRx (KinomeScan)
The following applies: CAMK2G, 10 µM; read-out: score (%).

Assay [9] addresses T9, KinomeScan kinase panel (Homo sapiens, UniProt Q16832).
T9 construct: purchased DiscoveRx (KinomeScan)
T9 sequence (Q16832 22-855): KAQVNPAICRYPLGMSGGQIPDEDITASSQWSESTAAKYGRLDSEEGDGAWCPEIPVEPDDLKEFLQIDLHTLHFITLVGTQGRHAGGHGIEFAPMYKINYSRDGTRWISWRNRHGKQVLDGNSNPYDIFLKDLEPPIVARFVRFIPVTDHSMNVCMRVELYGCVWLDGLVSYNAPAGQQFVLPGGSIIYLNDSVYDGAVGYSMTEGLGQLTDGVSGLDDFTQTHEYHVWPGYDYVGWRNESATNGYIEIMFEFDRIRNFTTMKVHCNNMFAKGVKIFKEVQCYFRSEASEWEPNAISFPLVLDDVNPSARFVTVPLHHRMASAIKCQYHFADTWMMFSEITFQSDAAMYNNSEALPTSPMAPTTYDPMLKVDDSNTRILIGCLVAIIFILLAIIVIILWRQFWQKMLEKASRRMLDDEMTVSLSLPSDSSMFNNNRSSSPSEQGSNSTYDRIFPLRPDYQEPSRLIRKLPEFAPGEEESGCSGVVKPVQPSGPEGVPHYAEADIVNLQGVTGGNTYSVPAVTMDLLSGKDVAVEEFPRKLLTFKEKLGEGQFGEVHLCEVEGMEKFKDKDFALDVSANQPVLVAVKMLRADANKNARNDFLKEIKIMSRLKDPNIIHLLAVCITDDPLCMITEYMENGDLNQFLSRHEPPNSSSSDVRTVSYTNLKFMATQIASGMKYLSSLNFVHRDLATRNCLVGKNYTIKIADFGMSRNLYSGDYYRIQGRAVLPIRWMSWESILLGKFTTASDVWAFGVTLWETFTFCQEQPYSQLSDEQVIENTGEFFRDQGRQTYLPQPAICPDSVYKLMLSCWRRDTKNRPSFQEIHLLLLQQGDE
As to conditions: DDR2, 10 µM; read-out: score (%).

The target in assay [10] is T10, KinomeScan kinase panel (Homo sapiens, UniProt Q96GD4).
T10 construct: purchased DiscoveRx (KinomeScan)
T10 sequence (Q96GD4 whole entry): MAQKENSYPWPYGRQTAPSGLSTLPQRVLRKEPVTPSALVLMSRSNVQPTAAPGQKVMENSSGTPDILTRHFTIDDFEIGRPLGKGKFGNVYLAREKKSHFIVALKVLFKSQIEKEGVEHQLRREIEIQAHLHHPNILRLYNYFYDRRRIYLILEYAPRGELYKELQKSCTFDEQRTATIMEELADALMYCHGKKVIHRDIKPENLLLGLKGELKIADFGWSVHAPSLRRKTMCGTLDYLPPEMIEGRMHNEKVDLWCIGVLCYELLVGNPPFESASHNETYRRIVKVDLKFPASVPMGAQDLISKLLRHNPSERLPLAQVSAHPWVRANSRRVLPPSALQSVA
As to conditions: AURKB, 10 µM; read-out: score (%).

Assay [11] has as its target T11, KinomeScan kinase panel (Homo sapiens, UniProt Q9NYL2).
T11 construct: purchased DiscoveRx (KinomeScan)
As to conditions: kinase ZAK; 10 µM; read-out: score (%).

Assay [12] addresses T12, KinomeScan kinase panel (Homo sapiens, UniProt Q9Y4K4).
T12 construct: purchased DiscoveRx (KinomeScan)
As to conditions: MAP4K5, 10 µM; read-out: score (%).

T1 sequence (P00533 25-1210 L858R): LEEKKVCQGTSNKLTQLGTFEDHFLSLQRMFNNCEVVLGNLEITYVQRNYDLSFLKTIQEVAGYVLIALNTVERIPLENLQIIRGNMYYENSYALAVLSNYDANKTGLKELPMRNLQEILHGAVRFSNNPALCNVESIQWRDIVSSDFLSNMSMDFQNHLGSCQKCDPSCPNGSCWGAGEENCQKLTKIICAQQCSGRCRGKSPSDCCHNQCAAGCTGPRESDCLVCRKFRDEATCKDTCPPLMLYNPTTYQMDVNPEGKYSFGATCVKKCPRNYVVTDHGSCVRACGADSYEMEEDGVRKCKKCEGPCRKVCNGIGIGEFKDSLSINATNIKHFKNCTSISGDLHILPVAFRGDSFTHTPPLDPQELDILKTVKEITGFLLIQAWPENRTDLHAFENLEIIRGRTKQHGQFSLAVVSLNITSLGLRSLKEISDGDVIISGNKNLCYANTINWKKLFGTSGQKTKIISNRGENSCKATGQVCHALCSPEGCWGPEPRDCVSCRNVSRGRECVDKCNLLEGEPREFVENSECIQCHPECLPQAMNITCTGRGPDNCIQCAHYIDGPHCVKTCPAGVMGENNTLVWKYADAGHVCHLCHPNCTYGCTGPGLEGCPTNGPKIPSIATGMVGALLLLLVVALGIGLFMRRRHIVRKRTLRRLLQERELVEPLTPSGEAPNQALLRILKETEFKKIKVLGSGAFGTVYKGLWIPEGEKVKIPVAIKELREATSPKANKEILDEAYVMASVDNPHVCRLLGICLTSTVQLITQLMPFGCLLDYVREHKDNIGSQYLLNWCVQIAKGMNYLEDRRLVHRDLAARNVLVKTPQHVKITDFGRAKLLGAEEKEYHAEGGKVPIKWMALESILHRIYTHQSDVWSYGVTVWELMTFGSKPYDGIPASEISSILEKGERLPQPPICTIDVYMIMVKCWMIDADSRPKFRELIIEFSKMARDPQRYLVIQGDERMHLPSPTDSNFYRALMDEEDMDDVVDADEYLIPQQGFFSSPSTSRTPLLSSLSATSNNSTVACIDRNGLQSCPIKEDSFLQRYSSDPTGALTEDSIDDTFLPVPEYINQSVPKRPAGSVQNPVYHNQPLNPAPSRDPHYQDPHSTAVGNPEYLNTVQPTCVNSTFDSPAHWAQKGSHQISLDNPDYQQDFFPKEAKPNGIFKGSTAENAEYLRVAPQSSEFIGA
T7 sequence (Q13131 whole entry): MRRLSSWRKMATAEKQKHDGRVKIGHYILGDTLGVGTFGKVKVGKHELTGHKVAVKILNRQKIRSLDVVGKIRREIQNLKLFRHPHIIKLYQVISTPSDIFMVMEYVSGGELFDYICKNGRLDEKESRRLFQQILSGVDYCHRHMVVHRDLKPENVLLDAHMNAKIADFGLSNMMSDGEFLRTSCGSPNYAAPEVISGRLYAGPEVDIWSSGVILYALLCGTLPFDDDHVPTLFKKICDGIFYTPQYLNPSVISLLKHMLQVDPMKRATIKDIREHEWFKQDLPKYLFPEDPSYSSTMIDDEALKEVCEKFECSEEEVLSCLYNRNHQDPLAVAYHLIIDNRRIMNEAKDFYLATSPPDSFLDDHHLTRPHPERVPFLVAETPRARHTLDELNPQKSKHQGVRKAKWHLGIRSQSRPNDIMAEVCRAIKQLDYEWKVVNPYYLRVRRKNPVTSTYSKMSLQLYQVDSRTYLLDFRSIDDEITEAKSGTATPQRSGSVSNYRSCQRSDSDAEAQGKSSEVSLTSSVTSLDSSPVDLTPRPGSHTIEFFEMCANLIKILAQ
T12 sequence (Q9Y4K4 whole entry): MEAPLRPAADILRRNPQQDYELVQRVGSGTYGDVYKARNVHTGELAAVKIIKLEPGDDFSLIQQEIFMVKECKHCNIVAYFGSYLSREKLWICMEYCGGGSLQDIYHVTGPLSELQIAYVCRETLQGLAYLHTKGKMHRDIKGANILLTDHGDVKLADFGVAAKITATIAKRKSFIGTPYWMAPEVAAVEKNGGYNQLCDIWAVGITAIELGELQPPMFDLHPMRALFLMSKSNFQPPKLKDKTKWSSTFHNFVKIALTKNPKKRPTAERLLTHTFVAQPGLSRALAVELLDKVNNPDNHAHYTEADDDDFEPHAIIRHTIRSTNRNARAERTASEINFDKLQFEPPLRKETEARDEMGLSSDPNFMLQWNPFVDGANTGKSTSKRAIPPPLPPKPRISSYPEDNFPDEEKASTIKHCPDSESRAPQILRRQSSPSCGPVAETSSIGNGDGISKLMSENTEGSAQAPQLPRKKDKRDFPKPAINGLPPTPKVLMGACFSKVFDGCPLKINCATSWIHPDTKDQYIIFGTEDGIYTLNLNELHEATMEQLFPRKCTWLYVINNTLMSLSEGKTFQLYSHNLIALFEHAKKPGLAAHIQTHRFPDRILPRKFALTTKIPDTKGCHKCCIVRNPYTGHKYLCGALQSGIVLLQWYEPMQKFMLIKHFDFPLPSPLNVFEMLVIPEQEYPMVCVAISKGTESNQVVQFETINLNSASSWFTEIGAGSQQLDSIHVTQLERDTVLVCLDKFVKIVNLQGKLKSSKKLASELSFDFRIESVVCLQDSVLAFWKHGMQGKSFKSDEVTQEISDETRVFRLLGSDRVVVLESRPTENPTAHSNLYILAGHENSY

`CCN1CCN(Cc2ccc(NC(=O)c3ccc(C)c(NC(=O)c4cncc(-c5cccs5)c4)c3)cc2C(F)(F)F)CC1` [ALW-II-41-27]: the “score (%)” value in assay [1] was 0.25%; in assay [6], 8.6%. Moreover, the remaining binding at 10 µM in assay [2] is 2.2%; in assay [3] (kinase SRPK2, 10 µM) it was greater than 30%; in assay [4], greater than 30%; in [5] (PRKCE), 5%; in assay [7] it was greater than 30%; in assay [8], greater than 30%. Moreover, the remaining binding at 10 µM in [9] was 12%; in assay [10], greater than 30%; in assay [11] it was 3%; in assay [12], 0.75%.

Take `CCN1CCN(Cc2ccc(NC(=O)c3ccc(C)c(/C=C/c4cnc5[nH]ccc5c4Cl)c3)cc2C(F)(F)F)CC1` [HG-6-63-01, (E)-3-(2-(4-chloro-1H-pyrrolo[2,3-b]pyridin-5-yl)vinyl)-N-(4-((4-ethylpiperazin-1-yl)methyl)-3-(trifluoromethyl)phenyl)-4-methylbenzamide]: the “score (%)” value in assay [1] is reported as 0.4%; in assay [6] it was 21%. Further, the remaining binding at 10 µM in [2] is 0.7%; in [3] (SRPK2, 10 µM), 28%; in assay [4], 0.6%; in assay [5] (PRKCE), greater than 30%; in assay [7] it was 18%; in assay [8], greater than 30%. The remaining binding at 10 µM in assay [9] was 0.8%; in [10], 6.6%; in assay [11] it was 0.35%; in assay [12], 1.8%.

Consider `CCN1CCN(Cc2ccc(NC(=O)c3ccc(C)c(C#Cc4cccnc4)c3)cc2C(F)(F)F)CC1` [XMD15-44], for which the “score (%)” value in assay [1] is 4%; in assay [6] it was “nb (Hits values higher than 30% were considered negative (no binding: nb))”. In addition, the remaining binding at 10 µM is 0.25% in [2]; 81% in assay [3] (kinase SRPK2, 10 µM); greater than 30% in assay [4]; 54% in assay [5] (kinase PRKCE); 1.2% in assay [7]; greater than 30% in assay [8]. The remaining binding at 10 µM in assay [9] came out at 1%; in assay [10], 24%; in [11] it was 0.4%; in assay [12], 3%.
